Source: patent US7115797B2, “Mice lacking inward-rectifying potassium channel Kir6.1” (JCR Pharmaceuticals Co., Ltd., priority 2002, dated 2006)

Assays:
ventricular cells [1] = experiment: Whole-cell membrane currents of isolated ventricular cells (patch-clamp, ramp-pulse protocol); assay type: cell-based, mouse; details: ventricular cells of both Kir6.1+/+ and Kir6.1-/- mice
Procedure: (§1) Kir6.1 is expressed most abundantly in the heart (24), and is present in cardiomyocytes (25). Therefore, electrophysiological properties of ventricular myocytes isolated from Kir6.1^+/+ and Kir6.1^−/− mice were compared. The quasi-steady-state membrane currents were recorded using a ramp-pulse protocol.
(§2) Briefly, single ventricular cells of the heart were enzymatically isolated and whole-cell membrane currents were recorded by the patch-clamp method (13). The pipette solution was composed of 20 mM KCl, 1 mM MgCl2, 1 mM phosphocreatine-K2, 110 mM K1-aspartate, 1 mM K2-ATP, 1.0 mM EGTA, 5 mM HEPES (pCa 8.0, pH 7.4). The external solution used was a HEPES-Tyrode solution containing 143 mM NaCl, 5.4 mM KCl, 1.8 mM CaCl2, 0.5 mM MgCl2, 0.33 mM NaHPO4, […], 5 mM HEPES (pH 7.4). Voltage- and current-clamp experiments in heart cells were performed at 36.0° C.

ventricular cells [2] = experiment: Action potential recording in isolated ventricular cells (current-clamp); assay type: cell-based, mouse; details: for APD at 90% repolarization level (APD90): mean±SE
Procedure: as §1, §2

[3] = test system: aorta smooth muscle cells; experiment: Whole-cell membrane currents of aorta smooth muscle cells; assay type: cell-based, mouse; details: for density of pinacidil-induced, glibenclamide-sensitive inward K+ current: held at -40 mV, high K+ (140 mM) solution, mean±SE
Procedure: Single smooth muscle cells of thoracic aorta were enzymatically isolated and electrophysiological studies were conducted in the same manner as performed in the cardiomyocytes.
The compositions of the extracellular high K^+ solution and the pipette solution used in this smooth muscle cell experiment were as follows. The external high-K^+ solution: 2.9 mM NaCl, 140 mM KCl, 2.2 mM CaCl2, 1.2 mM MgCl2, 14 mM glucose and 10 mM HEPES-KOH buffer (pH 7.4). The pipette solution: 140 mM KCl, 4 mM MgCl2, 1 mM ATP-K2, 10 mM EGTA and 10 mM HEPES-KOH solution (pH 7.2). The membrane current was measured at room temperature.
Effect of […] pinacidil was tested on whole-cell membrane currents of aorta smooth muscle cells held at −40 mV in high K^+ (140 mM) solution.

anesthetized mice [4] = experiment: Induction of coronary spasm by methylergometrine in vivo (ECG of anesthetized mice)
Procedure: (§3) ECG recordings of conscious mice under unrestricted conditions were obtained using an implantable radio frequency transmitter (TA10ETA-F20) (DATA SCIENCES, St. Paul, Minn.), with subcutaneous leads placed in the conventional lead II position. ECGs of anesthetized mice and isolated hearts (Langendorff-perfused heart) were recorded with leads placed on the body surface (lead II) or epicardium.
(§4) To link dysregulation of vascular tonus and sudden death in Kir6.1^−/− mice, an examination was tried to induce vasospasm using methylergometrine, an ergot alkaloid that stimulates serotonergic receptors and directly triggers the vasoconstriction of vascular smooth muscles (26).

[5] = test system: Langendorff-perfused hearts; experiment: Induction of coronary spasm by methylergometrine in vitro (ECG of Langendorff-perfused hearts); parameters: species or system mouse; details: 20 mg
Procedure: as §3, §4

anesthetized mice [6] = experiment: Measurement of aortic blood pressure (mean arterial pressure) in anesthetized mice; assay type: in vivo, mouse; details: Kir6.1+/+ mice; intravenous 0.3 mg/kg; within 5 minutes; urethane anesthesia
Procedure: K^+ channel openers are known to lower arterial blood pressure by relaxing vascular smooth muscles by opening vascular KATP channels. The present inventors examined the vasodilation response to the K^+ channel opener pinacidil in Kir6.1^+/+ and Kir6.1^−/− mice, in vivo at first.
Hemodynamic measurements were carried out according to the method described by, Suzuki, et al. (12). Changes of mean arterial pressure (MAP) after intravenous injection of 0.3 mg/kg pinacidil are indicated on the ordinate. The points show mean±SE of 6 animals for both groups.

aortic rings = experiment: Aortic contraction in isolated aortic preparation (tension of thoracic aortic rings precontracted by norepinephrine); assay type: cell-based, mouse; details: precontracted by 0.1 μM norepinephrine, cumulative pinacidil
Procedure: The vasodilation response of thoracic aorta to the K^+ channel opener was further examined in vitro by measuring changes in the tension of aortic rings isolated from Kir6.1^+/+ and Kir6.1^−/− mice (FIG. 12). In the same manner as described by Suzuki et al. (13), mechanical function studies of isolated thoracic aorta were carried out. Briefly, the thoracic aorta without the endothelium was removed and cut into rings (4 mm in length). For isometric tension recording, the rings were mounted in a thermostatic organ bath. The bath was perfused with Krebs-Henseleit solution gassed with 95% O2/5% CO2. The aortic rings were precontracted by 0.1 μM norepinephrine, and pinacidil was added in a cumulative manner.

[7] = anesthetized Kir6.1-/- mice, intravenous injection 20 mg

COc1ccc(Cl)cc1C(=O)NCCc1ccc(S(=O)(=O)NC(=O)NC2CCCCC2)cc1 [glibenclamide]
block of pinacidil-induced outward current (ventricular cells [1]; 1 μM glibenclamide): blocked | reversal of pinacidil-induced APD90 shortening (ventricular cells [2]; addition of 1 μM glibenclamide after 100 μM pinacidil, Kir6.1+/+ and Kir6.1-/- cells): reversed to control levels | block of pinacidil-elicited inward K+ currents ([3]; Kir6.1+/+ smooth muscle cells): blocked

CC[C@@H](CO)NC(=O)[C@@H]1C=C2c3cccc4[nH]cc(c34)C[C@H]2N(C)C1 [methylergometrine]
significant changes in ECG or death (animals affected) (anesthetized mice [4]; Kir6.1+/+ mice, intravenous injection): none of 7 | cardiac death concomitantly with changes in ECG (animals affected) (anesthetized mice [4]; Kir6.1-/- mice, intravenous injection 20 mg): 5 Kir6.1^−/− mice out of 8 | depression of ST segments on ECG (animals affected) (anesthetized mice [4]; [7]): 1 animal out of 8 | elevation of ST segments on ECG (animals affected) (anesthetized mice [4]; [7]): 4 animals out of 8 | elevation of the ST segment in isolated hearts (hearts affected) ([5]; isolated hearts of Kir6.1+/+ mice): 0/5 | elevation of the ST segment in isolated hearts (hearts affected) ([5]; isolated hearts of Kir6.1-/- mice): 4/4

CC(N/C(=N\C#N)Nc1ccncc1)C(C)(C)C (centres unmarked) [pinacidil]
outward current (ATP-sensitive K+ current, IK,ATP) (ventricular cells [1]; pinacidil 1, 10 or 100 μM, 36.0° C): concentration-dependent increases of an outward current | APD at 90% repolarization level (APD90) (ventricular cells [2]; Kir6.1+/+ ventricular cells, after 100 μM pinacidil (before: 31.6±2.3 ms)): 18.3 ± 2.2 ms | APD at 90% repolarization level (APD90) (ventricular cells [2]; Kir6.1-/- ventricular cells, after 100 μM pinacidil (before: 31.1±4.2 ms)): 18.3 ± 3.9 ms | decrease in MAP (anesthetized mice [6]): about 30 mmHg | density of pinacidil-induced, glibenclamide-sensitive inward K+ current ([3]; Kir6.1+/+ smooth muscle cells): 9.53±2.32 pA/pF | density of pinacidil-induced, glibenclamide-sensitive inward K+ current ([3]; Kir6.1-/- smooth muscle cells): 0.13±0.07 pA/pF | vasodilating effect (aortic rings; aortic rings from Kir6.1+/+ mice): concentration-dependent vasodilating effect | vasodilating effect (aortic rings; aortic rings from Kir6.1-/- mice): din not elicit any KATP channel-mediated vasodilating effect
